{
  "source": "patent US20080085563A1",
  "about": "“Detection of Gadolinium Chelates” (IDEXX LABORATORIES, INC., priority 2006, published 2008)",
  "key": {"[1]": {"details": "weak acid of low-pH buffering system; first value; cited from earlier work"}, "[2]": {"test": "Masking of ferric ion interference in the gadolinium-arsenazo III assay", "details": "70 mM HDMP in reagent", "method": "In one aspect of the invention, the reagent includes HDMP. For example, a reagent of the invention can contain about 10 to about 2000 mM HDMP. In various aspects, the reagent contains about 10 to about 800 mM HDMP, and more particularly about 70 mM HDMP. […] Higher levels of HDMP may be selected to further remove calcium and iron interference based upon analytical sensitivity, matrix effects (e.g., diet, drugs, toxicants, […] icterus), solubility, sample quality (e.g., hemolysis) and storage stability. […] The ferric sulfate increased the net absorbance of the solution ([…] nm minus A750 nm). This amount of ferric ion is approximately 10 times the amount that would be contributed by 0.07 mL of a normal canine serum sample."}, "[3]": {"test": "Masking of calcium interference in the gadolinium-arsenazo III assay", "description": "For instance, while calcium interference decreases exponentially with pH, it is not completely eliminated. In addition, the affinity of gadolinium for arsenazo dye decreases with pH, reducing both linearity and sensitivity of gadolinium response. In one aspect, the method of the invention allows for a pH window where the pH is high enough to allow highly efficient measurement of gadolinium chelate while reducing calcium interference by 99% relative to its maximal binding to Arsenazo at pH 6. Nonetheless, even within this optimally selective pH window, interference from both calcium and ferric ions is substantial. To remedy this persistent residual calcium interference, in another aspect of the invention, the compound HDMP, commonly used as an oral iron chelator for treatment of thalassemia (iron overload), is added to the reagent of the invention to effectively mask interference from both calcium and ferric ions without substantially reducing gadolinium assay response. In general, chelating agents, including EDTA, EGTA, TTHA, EDTPO, phenanthroline, and 8-hydroxyquinoline have a greater affinity for rare earth metals, such as gadolinium, than for calcium. […] This is obtained by subtracting the absorbance of each solution at 750 nm from its absorbance at 654 nm, reducing interference from wavelength-independent absorbance due to sample turbidity."}, "[4]": {"test": "Effect of masking agent on gadolinium response in the arsenazo III assay", "details": "optimal amount of HDMP, pH 2.4", "description": "In general, chelating agents, including EDTA, EGTA, TTHA, EDTPO, phenanthroline, and 8-hydroxyquinoline have a greater affinity for rare earth metals, such as gadolinium, than for calcium. HDMP, however, is unusual in its ability to bind calcium preferentially over gadolinium. […] This essentially, although not completely, eliminates the interference by calcium with the method of the invention. […] In one aspect of the invention, the reagent includes HDMP. For example, a reagent of the invention can contain about 10 to about 2000 mM HDMP. In various aspects, the reagent contains about 10 to about 800 mM HDMP, and more particularly about 70 mM HDMP. […] Higher levels of HDMP may be selected to further remove calcium and iron interference based upon analytical sensitivity, matrix effects (e.g., diet, drugs, toxicants, […] icterus), solubility, sample quality (e.g., hemolysis) and storage stability. […] Commercial […]®, Berlex Laboratories, Wayne N.J.) ranging from 50-400 μM was added to 0.07 mL of canine serum. The canine serum was added to the arsenazo III reagent in varying amounts. […] This is obtained by subtracting the absorbance of each solution at 750 nm from its absorbance at 654 nm, reducing interference from wavelength-independent absorbance due to sample turbidity."}},
  "note": "Where a SMILES comes first, the peptide text is derived from it.",
  "data": [
    {"smiles": "O=C1CC(=O)NC(=O)N1", "note": "[Barbituric acid]", "values": [
      {"measurement": "Acid pKa", "setting": "[1]", "value": 4.04}
    ]},
    {"smiles": "NCC(=O)NCC(=O)O", "note": "[Diglycine] (H-Gly-Gly-OH)", "values": [
      {"measurement": "Acid pKa", "setting": "[1]", "value": 3.14}
    ]},
    {"smiles": "Cc1c(O)c(=O)ccn1C", "note": "[HDMP, 3-hydroxy-1,2-dimethyl-4(1H)-pyridone]", "values": [
      {"measurement": "ferric ion masked", "setting": "[2]", "value": "greater than 95%"},
      {"measurement": "calcium masked", "setting": "[3]; 70 mM HDMP in reagent", "value": 87, "unit": "%"},
      {"measurement": "reduction in calcium interference", "setting": "[3]; optimal amount of HDMP, pH 2.4", "value": "greater than 90%"},
      {"measurement": "reduction in gadolinium signal", "setting": "[4]", "value": "less than 10%"}
    ]}
  ]
}
